# Experimental data reported in patent US8426408B2, “Pyrimidine inhibitors of kinases” (AbbVie Inc., priority 2009, dated 2013).
# Key:
# Aurora B = biological target: T1, Aurora B (Homo sapiens, UniProt Q96GD4); test: Aurora B enzyme inhibition (time-resolved fluorescence, histone H3 peptide); type: biochemical; details: 1 mM ATP
# T1 construct: Active Aurora B enzyme (recombinant residues 1-344)
# Summary of the method: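 Recombinant Aurora B (residues 1-344) with GST-INCENP phosphorylated biotinylated histone H3 (1-21) peptide at 1 mM ATP in HEPES pH 7.4 with MgCl2, orthovanadate and Triton X-100 for 1 h. After EDTA stop, the phosphopeptide was detected by TR-FRET (Eu-cryptate anti-phospho-H3 / SA-APC, 665/615 nm ratio). IC50 from an exponential fit.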
# Aurora A = biological target: T2, Aurora A (Homo sapiens, UniProt O14965); test: Aurora A enzyme inhibition (time-resolved fluorescence, STK substrate-2); type: biochemical; details: 1 mM ATP
# T2 sequence (O14965 1-403): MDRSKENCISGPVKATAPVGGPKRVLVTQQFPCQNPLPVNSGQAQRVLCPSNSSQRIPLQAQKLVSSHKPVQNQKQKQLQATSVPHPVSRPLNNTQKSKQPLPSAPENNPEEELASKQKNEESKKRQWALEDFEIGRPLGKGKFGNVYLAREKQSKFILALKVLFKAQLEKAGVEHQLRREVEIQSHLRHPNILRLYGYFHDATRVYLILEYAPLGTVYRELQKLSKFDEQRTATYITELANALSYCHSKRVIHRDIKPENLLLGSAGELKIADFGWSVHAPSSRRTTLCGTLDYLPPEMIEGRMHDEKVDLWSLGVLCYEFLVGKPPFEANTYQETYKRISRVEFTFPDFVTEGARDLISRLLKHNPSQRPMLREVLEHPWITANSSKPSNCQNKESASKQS
# Summary of the method: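 Active enzyme incubated 1 h with biotinylated STK substrate-2, 1 mM ATP and inhibitor in Hepes pH 7.4 with MgCl2, orthovanadate and Triton X-100. EDTA stop; phosphopeptide detected by Eu-cryptate anti-phospho-STK/SA-XL665 TR-FRET (665/615 nm ratio); IC50 by exponential fit.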
# T1 sequence (Q96GD4 whole entry, the tested form may be a part): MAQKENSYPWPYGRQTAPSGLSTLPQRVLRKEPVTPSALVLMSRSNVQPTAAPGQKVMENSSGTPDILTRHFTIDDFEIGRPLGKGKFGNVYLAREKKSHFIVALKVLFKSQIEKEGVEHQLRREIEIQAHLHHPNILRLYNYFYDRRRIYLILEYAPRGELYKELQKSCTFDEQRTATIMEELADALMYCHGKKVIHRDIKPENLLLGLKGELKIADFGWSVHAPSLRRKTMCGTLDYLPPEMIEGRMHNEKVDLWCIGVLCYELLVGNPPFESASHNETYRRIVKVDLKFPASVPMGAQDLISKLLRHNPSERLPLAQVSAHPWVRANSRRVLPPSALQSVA
# T1 sequence (Q9NQS7 826-918 partner limits assumed): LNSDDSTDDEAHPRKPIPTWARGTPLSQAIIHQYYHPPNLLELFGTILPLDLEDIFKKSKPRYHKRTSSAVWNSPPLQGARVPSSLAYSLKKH
Ki (Aurora B),Ki (Aurora A),Compound
< 100 nM,< 100 nM,"CN1CCN(CCn2cc(Nc3ncc(Br)c(N[C@H]4[C@@H](C(N)=O)[C@@H]5C=C[C@H]4C5)n3)cn2)CC1 [Example 94, (1S,2S,3R,4R)-3-{[5-bromo-2-({1-[2-(4-methylpiperazin-1-yl)ethyl]-1H-pyrazol-4-yl}amino)pyrimidin-4-yl]amino}bicyclo[2.2.1]hept-5-ene-2-carboxamide]"
< 100 nM,< 100 nM,"NC(=O)[C@@H]1[C@H](Nc2nc(Nc3cnn(C4CCNCC4)c3)ncc2Br)[C@H]2C=C[C@@H]1C2 [Example 95, (1S,2S,3R,4R)-3-[(5-bromo-2-{[1-(piperidin-4-yl)-1H-pyrazol-4-yl]amino}pyrimidin-4-yl)amino]bicyclo[2.2.1]hept-5-ene-2-carboxamide]"
< 100 nM,< 100 nM,"COCCn1cc(Nc2ncc(Cl)c(N[C@H]3[C@@H](C(N)=O)[C@@H]4C=C[C@H]3C4)n2)cn1 [Example 96, (1S,2S,3R,4R)-3-[(5-chloro-2-{[1-(2-methoxyethyl)-1H-pyrazol-4-yl]amino}pyrimidin-4-yl)amino]bicyclo[2.2.1]hept-5-ene-2-carboxamide]"
